Laboratory results published in patent US4661602A, “Substituted alkyl imidazole derivatives” (G. D. Searle & Co., priority 1985, dated 1987).
Counter-ions that a name gives are not always drawn. Like-named read-outs stand apart in the source and are kept apart here.

Tests used:
Campl. fetus ATCC 29428 = assay: Anti-anaerobic activity, additional strains; assay type: cell-based; settings: Campylobacter fetus, ATCC29428
B. Fragilis ATCC 11295 = assay: Anti-anaerobic activity, strain D (microtitre plate MIC/MBC); assay type: cell-based; settings: Bacteroides fragilis, ATCC11295, 48 h
[1] = test system: Clostridium perfringens NCTC 523; assay: microbe, parasite or virus in culture; assay type: cell-based; settings: NCTC523
[2] = test system: Peptococc. magnus ATCC 29328; assay: Anti-anaerobic activity, additional strains; assay type: cell-based
B. Fragilis WS-1 = assay: Anti-anaerobic activity, strain E (microtitre plate MIC/MBC); assay type: cell-based; settings: Bacteroides fragilis, 48 h
P. prevotti ATCC 9321 = assay: Anti-anaerobic activity, additional strains; assay type: cell-based
B. Fragilis NCTC 10581 = assay: Anti-anaerobic activity, strain A (microtitre plate MIC/MBC); assay type: cell-based, Bacteroides fragilis
[3] = test system: Cl. perfringens NCTC 8237; assay: microbe, parasite or virus in culture; assay type: cell-based; settings: Clostridium perfringens, NCTC8237
B. Fragilis NCTC 9344 = assay: Anti-anaerobic activity, strain C (microtitre plate MIC/MBC); assay type: cell-based; settings: Bacteroides fragilis, NCTC9344, 48 h
Trichomonas vaginalis = assay: MIC against Trichomonas vaginalis (Diamonds Medium); assay type: cell-based
[4] = test system: Propionibacterium acnes NCTC 737; assay: Anti-anaerobic activity, additional strains; assay type: cell-based; settings: Cutibacterium acnes, NCTC737
P. acnes NCTC 7337 = assay: Anti-anaerobic activity, additional strains; assay type: cell-based, Propionibacterium acnes; settings: Cutibacterium acnes, NCTC7337
[5] = test system: Peptostrepto anaerobicus ATCC 27337; assay: Anti-anaerobic activity, additional strains; assay type: cell-based
B. Fragilis NCTC 9343 = assay: Anti-anaerobic activity, strain B (microtitre plate MIC/MBC); assay type: cell-based, Bacteroides fragilis; settings: for MIC: 48 hours, 37° C., anaerobic chamber, lowest concentration with no detectable growth
[6] = test system: Fuso. necrophorum ATCC 11295; assay: Anti-anaerobic activity, additional strains; assay type: cell-based; settings: Fusobacterium necrophorum, ATCC11295
[7] = Peptostrepto anaerobicus ATCC 27337
[8] = Bacteroides fragilis, NCTC10581, 48 h

Clc1ccc(N2CCN=C2C(Cn2ccnc2)c2ccccc2)c(Cl)c1 (centres unmarked) [Example 3, 1-(2,4-Dichlorophenyl)-4,5-dihydro-2-[2-(imidazol-1-yl)-1-phenylethyl]imidazole hydrochloride]
1.5 µg/mL: MIC (Campl. fetus ATCC 29428; Campl. fetus ATCC 29428, read-out: MIC) | MIC ([2]; Peptococc. magnus ATCC 29328) | MIC (B. Fragilis WS-1; strain E, 48 hours, 37° C., anaerobic chamber, lowest concentration with no detectable growth, read-out: MIC) | MIC [5, 7] | MIC (B. Fragilis NCTC 9343; Bacteroides fragilis, NCTC9343, 48 h, strain B, read-out: MIC) | MBC (B. Fragilis NCTC 9343; Bacteroides fragilis, NCTC9343, 48 h, strain B, less than 5 colonies (99.9% reduction in viable count) after 48 hours, read-out: MBC)
0.8 µg/mL: MBC (B. Fragilis ATCC 11295; strain D, less than 5 colonies (99.9% reduction in viable count) after 48 hours, read-out: MBC) | MIC [1] | MBC (B. Fragilis NCTC 10581; Bacteroides fragilis, NCTC10581, 48 h, strain A, less than 5 colonies (99.9% reduction in viable count) after 48 hours, read-out: MBC) | MBC (B. Fragilis NCTC 9344; strain C, less than 5 colonies (99.9% reduction in viable count) after 48 hours, read-out: MBC) | MIC ([4]; Propionibacterium acnes NCTC 737, read-out: MIC) | MBC (P. acnes NCTC 7337; P. acnes NCTC 7337, read-out: MBC) | MIC (P. acnes NCTC 7337; P. acnes NCTC 7337, read-out: MIC)
3.1 µg/mL: MBC [1] | MIC (P. prevotti ATCC 9321) | MBC [3] | MIC [3] | MIC (Trichomonas vaginalis) | MBC [4] | MBC [5] | MIC [6]
6.2 µg/mL: MBC (Campl. fetus ATCC 29428; Campl. fetus ATCC 29428, read-out: MBC) | MBC ([2]; Peptococc. magnus ATCC 29328, read-out: MBC) | MBC ([6]; Fuso. necrophorum ATCC 11295, read-out: MBC)
12.5 µg/mL: MBC (P. prevotti ATCC 9321; P. prevotti ATCC 9321)

Cc1ncc([N+](=O)[O-])n1CCO [Metronidazole, reference compound]
2.5 µg/mL: MBC (P. prevotti ATCC 9321; P. prevotti ATCC 9321)
0.3 µg/mL: MIC [5, 7] | MBC ([5]; Peptostrepto anaerobicus ATCC 27337, read-out: MBC)
0.08 µg/mL: MIC [1]
1.2 µg/mL: MBC [1] | MBC (B. Fragilis WS-1) | MIC (P. prevotti ATCC 9321; P. prevotti ATCC 9321, read-out: MIC) | MBC (B. Fragilis NCTC 10581; [8]) | MIC (B. Fragilis NCTC 10581; strain A, 48 hours, 37° C., anaerobic chamber, lowest concentration with no detectable growth) | MBC (B. Fragilis NCTC 9344) | MBC (B. Fragilis NCTC 9343; Bacteroides fragilis, NCTC9343, 48 h)
0.8 µg/mL: MIC (B. Fragilis WS-1) | MIC (B. Fragilis NCTC 10581; [8]) | MIC (B. Fragilis NCTC 9344) | MIC (B. Fragilis NCTC 9343; strain B)
10 µg/mL: MBC (Campl. fetus ATCC 29428) | MIC (Campl. fetus ATCC 29428) | MBC (B. Fragilis ATCC 11295) | MBC [2] | MBC [3] | MIC [3] | MBC [4] | MIC [4] | MBC (P. acnes NCTC 7337) | MIC (P. acnes NCTC 7337) | MBC [6] | MIC [6]
1.5 µg/mL: MIC (B. Fragilis NCTC 9343; Bacteroides fragilis, NCTC9343, 48 h, strain B)
0.6 µg/mL: MIC ([2]; Peptococc. magnus ATCC 29328) | MIC (B. Fragilis NCTC 10581; Bacteroides fragilis, NCTC10581, 48 h, strain A, 48 hours, 37° C., anaerobic chamber, lowest concentration with no detectable growth, read-out: MIC) | MIC (Trichomonas vaginalis; Diamonds Medium, lowest concentration at which no mobile organisms are viable microscopically, read-out: MIC)
